The source of these data is publication PMC6934184, “Selective DNA-PKcs inhibition extends the therapeutic index of localized radiotherapy and chemotherapy” (The Journal of Clinical Investigation, 2019).

Each structure is given as a SMILES string.

The inhibition is the relative decrease from the control value, in per cent.

This assay addresses T1, PAK4 (Homo sapiens, UniProt O96013).
T1 construct: purchased Thermo Fisher Scientific (Life Technologies) SelectScreen
In words: SelectScreen Z'LYTE. The class given is biochemical. An outline of the steps: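 SelectScreen broad panel; activity (Z'LYTE, Adapta) plus binding formats. ATP: Km app for CSF1R Z'LYTE; 10 for CAMK1 Adapta. Readout = % per kinase.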

T1 sequence (O96013 whole entry): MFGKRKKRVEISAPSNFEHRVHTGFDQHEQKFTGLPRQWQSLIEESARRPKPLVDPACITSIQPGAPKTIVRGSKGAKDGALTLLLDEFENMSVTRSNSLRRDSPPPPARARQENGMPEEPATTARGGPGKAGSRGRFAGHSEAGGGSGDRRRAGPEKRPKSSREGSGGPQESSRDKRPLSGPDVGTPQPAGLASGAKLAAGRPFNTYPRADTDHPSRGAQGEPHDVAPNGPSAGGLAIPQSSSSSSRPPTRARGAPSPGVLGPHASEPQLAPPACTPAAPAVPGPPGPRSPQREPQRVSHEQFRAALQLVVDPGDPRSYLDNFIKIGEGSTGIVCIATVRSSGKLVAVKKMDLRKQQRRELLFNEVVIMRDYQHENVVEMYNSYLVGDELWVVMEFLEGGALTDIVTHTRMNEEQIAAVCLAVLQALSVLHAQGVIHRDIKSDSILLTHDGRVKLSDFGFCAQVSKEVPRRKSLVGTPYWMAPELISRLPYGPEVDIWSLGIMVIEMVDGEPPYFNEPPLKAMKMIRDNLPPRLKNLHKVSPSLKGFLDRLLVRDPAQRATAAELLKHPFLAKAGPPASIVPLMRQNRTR

Regarding `CN(C(=O)CN1CCOCC1)c1ccc2sc3c(-c4cccc5c(=O)cc(N6CC7CCC(C6)O7)oc45)cccc3c2c1` [NU5455], the inhibition at 1 µM was -3.3%.
